Here are results for one compound from US9261498B2, “Biomarker for sensitivity to mTOR inhibitor therapy in kidney cancer” (The Regents of the University of California, priority 2005, dated 2016).

Experiment [1] concerns HIF-1α. Description: Immunoblot of HIF-1α protein in VHL knockdown RCC cells. The following applies: 1 and 10 nM CCI-779, 24 hours. The experiment is classed as cell-based, human. As for the experimental part:
(a) SN12C-CSCG and SN12C-VHLshRNA cell were treated with vehicle, 1 nM or 10 nM of CCI-779 and lysed 24 hours later. Lysates were subjected to immunoblotting for HIF-1α, HIF-2α, GLUT-1, CA-IX, p-eIF4G, p-S6 Ribosomal protein. Equal protein loading was verified using anti-β-actin antibody. (b) HIF-1α expression was probed by immunoblotting in SN12C-MSCV-5′TOP-HIF-1α cDNA (left panel) and SN12C-MSCV-HIF-1α cDNA (tight panel) post 24 hours of vehicle, 1 nM or 10 nM of CCI-779.
(§1) Cells and xenograft tumors were lysed in ECB lysis buffer (see, e.g. Kondo et al., Cancer Cell 1, 237-46 (2002)) or high-detergent buffer (2% SDS), (see, e.g. Chen et al., Nat Med 10, 33-9 (2004)), respectively, supplemented with complete protease and phosphatase inhibitor cocktails (Calbiochem). […] Bound antibody was detected using enhanced chemiluminescence (ECL, Amersham). For VEGF ELISA quantification, cells were plated in 6 well plates (1×10^5 per well). […] Thirty-six hours later, VEGF ELISA (R&D Systems) was performed according to the manufacturer's instructions, using a Fisher Plate reader. […]
Cells and xenograft tumors were lysed in ECB lysis buffer or high-detergent buffer (2% SDS), respectively, supplemented with complete protease and phosphatase inhibitor cocktails (Calbiochem). […] Bound antibody was detected using enhanced chemiluminescence (ECL, Amersham). […]
A general note: A western blot detects proteins with antibodies after separation by electrophoresis.

Experiment [2] concerns HIF-1α, HIF-2α, GLUT-1, CA-IX. Nature of the experiment: Immunoblot of HIF and target proteins in VHL knockdown cells expressing HIF-1α (P564A) / HIF-2α (P405A; P531A) mutants. The experiment is classed as cell-based, human. The following applies: SN12C VHL knockdown cells with HIF mutants lacking 5'TOP, 24 hours. On the procedure:
FIGS. 4A-4C. Rescue of CCI-779 growth suppression by HIF-1-α and HIF-2-α prolyl hydcroxylase mutants. SN12C-CSCG-VHLshRNA cells stably infected with the prolyl hydroxylation defective cDNA mutants p-Babe-puro-HA-HIF-1α (P564A), HIF-2α (P405A; P531A) or backbone vector were treated with CCI-779 or vehicle and harvested 24 hours later. (a) Lysates were subjected to immunoblotting for HIF-1α, HIF-2α, GLUT-1, CA-IX, p-eIF4G, p-S6 and β-Actin as loading control. (b) SN12C-VHLshRNA, SN12C-VHLshRNA-HIF-1α mutant, SN12C-VHLshRNA-HIF-2α mutant cells (1×10^5) were cultured in 10% serum rich media, in the presence of vehicle, 1 or 10 nM of CCI-779 for 5 days. Cell growth was measured by cell counts (n=3). […]
as §1

“Also recorded” adds a separate entry of the source.

As to `CO[C@H]1C[C@@H]2CC[C@@H](C)[C@@](O)(O2)C(=O)C(=O)N2CCCC[C@H]2C(=O)O[C@H]([C@H](C)C[C@@H]2CC[C@@H](OC(=O)C(C)(CO)CO)[C@H](OC)C2)CC(=O)[C@H](C)/C=C(\C)[C@@H](O)[C@@H](OC)C(=O)[C@H](C)C[C@H](C)/C=C/C=C/C=C/1C` [CCI-779], the HIF-1α protein levels entry in experiment [1] was “dramatically reduced; also recorded: reduction; also recorded: decrease”. For the same compound, the “levels of HIF mutants and downstream targets GLUT-1 and CA-IX” value in experiment [2] was “stably expressed in the presence or absence of CCI-779; also recorded: not affected”.
